According to US20170209499A1, “Propolis and Extracts Thereof for the Treatment of Skin Cancers and Improvement of Skin Health” (Manuka Health New Zealand Limited, priority 2014, published 2017):

Columns and labels:
COX-1 = target: T1, COX-1 (Rattus norvegicus, UniProt Q63921); experiment: Anti-inflammatory assay, LPS-activated rat blood neutrophils, TXB2 ELISA (COX-1 marker); format: cell-based; settings: 3 hours
T1 construct: endogenous in cells
T1 sequence (Q63921 27-602): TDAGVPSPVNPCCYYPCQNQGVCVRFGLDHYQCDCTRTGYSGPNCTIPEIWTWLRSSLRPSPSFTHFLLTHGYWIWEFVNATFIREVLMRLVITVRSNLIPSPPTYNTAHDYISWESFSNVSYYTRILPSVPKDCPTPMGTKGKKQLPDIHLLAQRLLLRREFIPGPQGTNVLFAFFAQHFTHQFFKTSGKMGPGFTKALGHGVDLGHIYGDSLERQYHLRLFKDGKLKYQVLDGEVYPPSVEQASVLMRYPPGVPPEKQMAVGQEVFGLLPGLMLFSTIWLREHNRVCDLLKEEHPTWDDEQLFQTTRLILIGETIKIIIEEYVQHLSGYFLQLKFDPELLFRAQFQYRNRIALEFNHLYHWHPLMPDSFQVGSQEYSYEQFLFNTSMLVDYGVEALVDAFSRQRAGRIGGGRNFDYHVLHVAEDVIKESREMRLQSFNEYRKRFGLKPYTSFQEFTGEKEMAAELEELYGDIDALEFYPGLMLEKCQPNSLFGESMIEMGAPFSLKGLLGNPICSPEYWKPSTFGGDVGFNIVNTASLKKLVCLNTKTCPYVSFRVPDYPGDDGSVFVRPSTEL
Procedure: (§1) The proliferation of cancers can follow an inflammatory pathway. […] This study was performed using LPS-activated neutrophils from rat blood to determine the inhibition of the inflammatory mediators cyclooxygenase enzymes COX I and COX II.
(§2) Anti-inflammatory assays were carried out as follows. Neutrophils from rat blood were cultured in the presence of the test sample or positive control before being activated into an inflammatory response through the use of lipopolysaccharide (LPS). The incubation period before addition of LPS was 20 minutes. The cell culture supernatants were then tested by ELISA for the presence of the cyclooxygenase COX-1 and COX-2 marker compounds thromboxane TXB2 and prostaglandin PGE2, respectively. […] The test samples were used at 50 μg and 200 μg of solids/ml, and were tested in triplicate. The incubation period for TXB2 and PGE2 was 3 hours.

COX-2 = target: T2, COX-2 (Rattus norvegicus, UniProt P35355); experiment: Anti-inflammatory assay, LPS-activated rat blood neutrophils, PGE2 ELISA (COX-2 marker); format: cell-based; settings: 3 hours
T2 construct: endogenous in cells
T2 sequence (P35355 18-604): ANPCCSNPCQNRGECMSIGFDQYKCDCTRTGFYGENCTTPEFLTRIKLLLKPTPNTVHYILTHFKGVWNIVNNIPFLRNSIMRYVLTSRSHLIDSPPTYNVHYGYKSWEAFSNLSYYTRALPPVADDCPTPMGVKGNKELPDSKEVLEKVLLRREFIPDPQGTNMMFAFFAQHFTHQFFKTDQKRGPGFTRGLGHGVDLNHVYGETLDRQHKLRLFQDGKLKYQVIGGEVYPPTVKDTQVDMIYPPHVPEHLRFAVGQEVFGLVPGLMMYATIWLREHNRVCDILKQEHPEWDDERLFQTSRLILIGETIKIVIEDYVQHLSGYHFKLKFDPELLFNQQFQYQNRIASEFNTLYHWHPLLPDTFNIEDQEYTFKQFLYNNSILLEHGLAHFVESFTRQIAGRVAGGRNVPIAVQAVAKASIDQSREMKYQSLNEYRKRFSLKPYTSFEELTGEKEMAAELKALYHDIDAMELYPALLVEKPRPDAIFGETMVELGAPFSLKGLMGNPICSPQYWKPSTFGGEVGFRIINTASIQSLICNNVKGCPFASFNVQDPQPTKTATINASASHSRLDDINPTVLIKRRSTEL
Procedure: as §1, §2

COX (I), 50 μg/ml (COX-1; 50 μg of solids/ml): S, NS | COX (I), 200 μg/ml (COX-1; 200 μg of solids/ml): 2.3, NS | COX (II), 50 μg/ml (COX-2; 50 μg of solids/ml): 10.1, NS | COX (II), 200 μg/ml (COX-2; 200 μg of solids/ml): S, NS
SMILES: OC[C@H]1O[C@@H]2O[C@H]3[C@H](O)[C@@H](O)[C@@H](O[C@H]4[C@H](O)[C@@H](O)[C@@H](O[C@H]5[C@H](O)[C@@H](O)[C@@H](O[C@H]6[C@H](O)[C@@H](O)[C@@H](O[C@H]7[C@H](O)[C@@H](O)[C@@H](O[C@H]8[C@H](O)[C@@H](O)[C@@H](O[C@H]9[C@H](O)[C@@H](O)[C@@H](O[C@H]1[C@H](O)[C@H]2O)O[C@@H]9CO)O[C@@H]8CO)O[C@@H]7CO)O[C@@H]6CO)O[C@@H]5CO)O[C@@H]4CO)O[C@@H]3CO [IFS#11, Gamma cyclodextrin]
